Binding % data for 25 molecules are collected here from US10111874B2, “Combination therapies for treatment of cancer” (Araxes Pharma LLC, priority 2014, dated 2018).

One test has as its target T1, KRAS G12C 1-169, his-tagged protein, GDP-loaded (Homo sapiens, UniProt P01116, G12C).
T1 construct: KRAS G12C 1-169, his-tagged protein, GDP-loaded
The test can be described thus: Biochemical assay: covalent binding to KRAS G12C analyzed by mass spectrometry. The following applies: compounds 247-342, measured at 30 min. As to the method: Compounds were tested for activity as follows:
Compounds were diluted to 50× final test concentration in DMSO in 96-well storage plates. […] Reactions were mixed carefully and thoroughly by pipetting up/down with a 200 μl multi-channel pipettor. […] 5 μl of 2% formic acid (Fisher cat#A117) in DI H2O was then added to each well followed by mixing with a pipette. The plate was then resealed with aluminum seal and stored on dry ice until analyzed as described below.
The above described assays were analyzed by mass spectrometry according to the following procedure:
The MS instrument is set to positive polarity, 2 GHz resolution, and low mass (1700) mode and allowed to equilibrate for 30 minutes. The instrument is then calibrated, switched to acquisition mode and the appropriate method loaded.
After another 30 minute equilibration time, a blank batch (i.e., buffer) is run to ensure equipment is operating properly. The samples are thawed at 37° C. for 10 minutes, briefly centrifuged, and transfer to the bench top. Wells A1 and H12 are spiked with 1 μL 500 μM internal standard peptide, and the plates centrifuged at 2000×g for 5 minutes. The method is then run and masses of each individual well recorded.
The masses (for which integration data is desired) for each well are pasted into the platemap and exported from the analysis. Masses for the internal standards are exported as well. The data at 50 ppm is extracted for the +19 charge state, and identity of well A1 is assigned using the internal standard spike and integrated. Peak data is exported as a TOF list and the above steps are repeated individually, for the +20, 21, 22, 23, 24, and 25 charge states.
As to `C=CC(=O)N1CCN(c2ncnc3c(F)c(-c4ccc(F)cc4F)c(F)cc23)CC1` [Compound 296], the Binding % entry was “+ (+indicates binding activity from 5% to 25%)”.

On to `C=CC(=O)N1CCN(c2ncnc3c(F)c(-c4c(C)ccc5[nH]ncc45)c(F)cc23)CC1` [Compound 297, 1-(4-(6,8-difluoro-7-(5-methyl-1H-indazol-4-yl)quinazolin-4-yl)piperazin-1-yl)prop-2-en-1-one], for which the Binding % entry was “+ (+indicates binding activity from 5% to 25%)”.

On to `C=CC(=O)N1CCN(c2ncnc3c(F)c(-c4c(C)ccc5cn[nH]c45)c(F)cc23)CC1` [Compound 298, 1-(4-(6,8-difluoro-7-(6-methyl-1H-indazol-7-yl)-quinazolin-4-yl)piperazin-1-yl)prop-2-en-1-one], for which the Binding % entry was “++ (++indicates binding activity greater than 25% and up to 50%)”.

Turning to `C=CC(=O)N1CCN(c2ncnc3c(F)c(-c4c(O)cccc4F)c(F)cc23)CC1` [Compound 299, 1-(4-(6,8-difluoro-7-(2-fluoro-6-hydroxyphenyl)quinazolin-4-yl)piperazin-1-yl)prop-2-en-1-one], the Binding % entry is reported as “+ (+indicates binding activity from 5% to 25%)”.

`C=CC(=O)N1CCN(c2nc(OC3CCOC3)nc3cc(-c4c(C)ccc5[nH]ncc45)c(Cl)cc23)CC1` (stereo not shown) [Compound 300, 1-(4-(6-chloro-7-(5-methyl-1H-indazol-4-yl)-2-(tetrahydrofuran-3-yloxy)quinazolin-4-yl)piperazin-1-yl)prop-2-en-1-one]: the Binding % result is “++ (++indicates binding activity greater than 25% and up to 50%)”.

Take `CN(C)C/C=C/C(=O)N1CCN(c2ncnc3c(F)c(-c4c(O)cccc4F)c(Cl)cc23)CC1` [Compound 301, (E)-1-(4-(6-chloro-8-fluoro-7-(2-fluoro-6-hydroxyphenyl)quinazolin-4-yl)piperazin-1-yl)-4-(dimethylamino)but-2-en-1-one]: the Binding % entry is “++ (++indicates binding activity greater than 25% and up to 50%)”.

Take `C=CC(=O)N1CCN(c2ncnc3c(Cl)c(-c4c(O)ccc5ccccc45)c(Cl)cc23)CC1` [Compound 303, 1-(4-(6,8-dichloro-7-(2-hydroxynaphthalen-1-yl)quinazolin-4-yl)piperazin-1-yl)prop-2-en-1-one]: the Binding % result is “++ (++indicates binding activity greater than 25% and up to 50%)”.

As for `C=CC(=O)N1CCN(c2nc(-c3cn[nH]c3)nc3c(F)c(-c4c(C)ccc5[nH]ncc45)c(Cl)cc23)CC1` [Compound 304, 1-(4-(6-chloro-8-fluoro-7-(5-methyl-1H-indazol-4-yl)-2-(1H-pyrazol-4-yl)quinazolin-4-yl)piperazin-1-yl)prop-2-en-1-one], the Binding % entry is “++ (++indicates binding activity greater than 25% and up to 50%)”.

With `C=CC(=O)N1CCN(c2cnnc3cc(-c4c(C)ccc5[nH]ncc45)c(C(F)(F)F)cc23)CC1` [Compound 305, 1-(4-(7-(5-methyl-1H-indazol-4-yl)-6-(trifluoromethyl)cinnolin-4-yl)piperazin-1-yl)prop-2-en-1-one], the Binding % entry is “++ (++indicates binding activity greater than 25% and up to 50%)”.

As for `C=CC(=O)N1CCN(c2ncnc3c(OC)c(-c4ccc(F)cc4F)c(Cl)cc23)CC1` [Compound 306, 1-(4-(6-chloro-7-(2,4-difluorophenyl)-8-methoxyquinazolin-4-yl)piperazin-1-yl)prop-2-en-1-one], the Binding % result was “++ (++indicates binding activity greater than 25% and up to 50%)”.

As for `C=CC(=O)N1CCN(c2ncnc3c(F)c(-c4cc(C(F)F)ccc4F)c(Cl)cc23)CC1` [Compound 307, 1-(4-(6-chloro-7-(5-(difluoromethyl)-2-fluorophenyl)-8-fluoroquinazolin-4-yl)piperazin-1-yl)prop-2-en-1-one], the Binding % result was “++ (++indicates binding activity greater than 25% and up to 50%)”.

For `C=CC(=O)N1CCN(c2c(C#N)cnc3c(F)c(-c4c(C)ccc5cn[nH]c45)c(Cl)cc23)CC1` [Compound 308, 4-(4-acryloylpiperazin-1-yl)-6-chloro-8-fluoro-7-(6-methyl-1H-indazol-7-yl)quinoline-3-carbonitrile], the Binding % entry is “+++ (+++indicates binding activity greater than 50% and up to 75%)”.

As to `C=CC(=O)N1CCN(c2nc(-c3ccn[nH]3)nc3c(F)c(-c4c(C)ccc5[nH]ncc45)c(Cl)cc23)CC1` [Compound 309, 1-(4-(6-chloro-8-fluoro-7-(5-methyl-1H-indazol-4-yl)-2-(1H-pyrazol-5-yl)quinazolin-4-yl)piperazin-1-yl)prop-2-en-1-one], the Binding % result is “+++ (+++indicates binding activity greater than 50% and up to 75%)”.

Consider `CN(C)C/C=C/C(=O)N1CCN(c2c(C#N)cnc3c(F)c(-c4cc(O)cc5ccccc45)c(Cl)cc23)CC1` [Compound 310, (E)-6-chloro-4-(4-(4-(dimethylamino)but-2-enoyl)piperazin-1-yl)-8-fluoro-7-(3-hydroxynaphthalen-1-yl)quinoline-3-carbonitrile], for which the Binding % result is on record as “++++ (++++indicates binding activity greater than 75%)”.

Take `Cc1ccc2[nH]ncc2c1-c1c(Cl)cc2c(N3CCN(C(=O)/C=C/CN)CC3)ncnc2c1F` [Compound 311, (E)-4-amino-1-(4-(6-chloro-8-fluoro-7-(5-methyl-1H-indazol-4-yl)quinazolin-4-yl)piperazin-1-yl)but-2-en-1-one]: the Binding % entry was “+++ (+++indicates binding activity greater than 50% and up to 75%)”.

As for `C=CC(=O)N1CCN(c2nc(NC)nc3cc(-c4c(C)ccc5[nH]ncc45)c(Cl)cc23)CC1` [Compound 312, 1-(4-(6-chloro-7-(5-methyl-1H-indazol-4-yl)-2-(methylamino)quinazolin-4-yl)piperazin-1-yl)prop-2-en-1-one], the Binding % entry is “++++ (++++indicates binding activity greater than 75%)”.

Regarding `C=CC(=O)N1CCN(c2ncnc3c(OC)c(-c4c(O)cccc4F)c(Cl)cc23)CC1` [Compound 313, 1-(4-(6-chloro-7-(2-fluoro-6-hydroxyphenyl)-8-methoxyquinazolin-4-yl)piperazin-1-yl)prop-2-en-1-one], the Binding % result was “+++ (+++indicates binding activity greater than 50% and up to 75%)”.

`C=CC(=O)N1CCN(c2nc(OCCN(C)C)nc3cc(-c4c(C)ccc5[nH]ncc45)c(Cl)cc23)CC1` [Compound 314, 1-(4-(6-chloro-2-(2-(dimethylamino)ethoxy)-7-(5-methyl-1H-indazol-4-yl)quinazolin-4-yl)piperazin-1-yl)prop-2-en-1-one]: the Binding % entry is “++++ (++++indicates binding activity greater than 75%)”.

As to `Cc1ccc2[nH]ncc2c1-c1c(Cl)cc2c(N3CCN(C(=O)/C=C/CO)CC3)ncnc2c1F` [Compound 315, (E)-1-(4-(6-chloro-8-fluoro-7-(5-methyl-1H-indazol-4-yl)quinazolin-4-yl)piperazin-1-yl)-4-hydroxybut-2-en-1-one], the Binding % entry is “+ (+indicates binding activity from 5% to 25%)”.

Consider `C=CC(=O)N1CCN(c2nc(OC3CCCOC3)nc3cc(-c4c(C)ccc5[nH]ncc45)c(Cl)cc23)CC1` (stereo not shown) [Compound 316, 1-(4-(6-chloro-7-(5-methyl-1H-indazol-4-yl)-2-(tetrahydro-2H-pyran-3-yloxy)quinazolin-4-yl)piperazin-1-yl)prop-2-en-1-one], for which the Binding % result was “++ (++indicates binding activity greater than 25% and up to 50%)”.

Take `C=CC(=O)N1CCN(c2ncnc3cc(-c4c(O)cccc4F)c(Cl)c(C(F)(F)F)c23)CC1` [Compound 318, 1-(4-(6-chloro-7-(2-fluoro-6-hydroxyphenyl)-5-(trifluoromethyl)quinazolin-4-yl)piperazin-1-yl)prop-2-en-1-one]: the Binding % entry is listed as “+ (+indicates binding activity from 5% to 25%)”.

For the molecule `C=CC(=O)N1CCN(c2nc(N)nc3cc(-c4c(C)ccc5[nH]ncc45)c(Cl)cc23)CC1` [Compound 319, 1-(4-(2-amino-6-chloro-7-(5-methyl-1H-indazol-4-yl)quinazolin-4-yl)piperazin-1-yl)prop-2-en-1-one], the Binding % result is “++ (++indicates binding activity greater than 25% and up to 50%)”.

As to `C=CC(=O)N1CCN(c2ncnc3c(F)c(-c4c(C)ccc5[nH]ncc45)c(Cl)cc23)CC1CO` (stereo not shown) [Compound 320, 1-(4-(6-chloro-8-fluoro-7-(5-methyl-1H-indazol-4-yl)quinazolin-4-yl)-2-(hydroxymethyl)piperazin-1-yl)prop-2-en-1-one], the Binding % result was “++ (++indicates binding activity greater than 25% and up to 50%)”.

Consider `C=CC(=O)N1CCN(c2ncnc3c(O)c(-c4ccc(F)cc4F)c(Cl)cc23)CC1` [Compound 321, 1-(4-(6-chloro-7-(2,4-difluorophenyl)-8-hydroxyquinazolin-4-yl)piperazin-1-yl)prop-2-en-1-one], for which the Binding % entry is “+ (+indicates binding activity from 5% to 25%)”.

The test is the same for the next values; noted with them: determined at 24 hrs.
Take “1-(4-(2′,6-dichloro-4-methoxybiphenylcarbonyl)piperazin-1-yl)prop-2-en-1-one [III-1]”: the Binding % result was “+ (+indicates binding activity from 5% to 10%)”.
